Source: the supplement of paper PMC10307832

What was measured:
Assay in all cases: relative viability (nuclei count vs DMSO), 5 days (fraction); higher = more cells survive
[1] = system: PC-3 [JPC-3]
Outline: (§1)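 Values are medians from duplicate plates. Each reflects relative viability, defined as the nuclei count of treated wells over that of vehicle wells. Lung cancer cell lines in 1536-well plates were pin-tool dosed one day after seeding with one drug alone or with a fixed anchor-drug dose plus five library-drug doses (not always all listed) in √10 steps, then fixed, stained and imaged at 4× after 5 days.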

[2] = system: NCI-H2087
Outline: as §1

[3] = system: HCC-366
Outline: as §1

[4] = system: NCI-H2228
Outline: as §1

[5] = system: RERF-LC-KJ
Outline: as §1

[6] = system: NCI-H1395
Outline: as §1

[7] = system: ABC-1
Outline: as §1

[8] = system: NCI-H460
Outline: as §1

[9] = system: LOU-NH91
Outline: as §1

[10] = system: NCI-H1793
Outline: as §1

[11] = system: UMC-11
Outline: as §1

[12] = system: NCI-H2405
Outline: as §1

[13] = system: HCC-78
Outline: as §1

[14] = system: LU99A
Outline: as §1

[15] = system: NCI-H3122
Outline: as §1

[16] = system: NCI-H2170
Outline: as §1

[17] = system: NCI-H1651
Outline: as §1

[18] = system: LC-2-ad
Outline: as §1

[19] = system: NCI-H1755
Outline: as §1

[20] = system: NCI-H1944
Outline: as §1

[21] = system: ChaGo-K-1
Outline: as §1

[22] = system: CAL-12T
Outline: as §1

## O=c1cc(-c2cccc3c2Sc2ccccc2S3)oc(N2CCOCC2)c1 + Cc1nc(Nc2ncc(C(=O)Nc3c(C)cccc3Cl)s2)cc(N2CCN(CCO)CC2)n1 [Dasatinib] (partner 0.075 µM)
[1]; first compound 0.08 µM
  relative viability: 1
[1]; first compound 0.253 µM
  relative viability: 0.949
[1]; first compound 0.8 µM
  relative viability: 1.07
[1]; first compound 2.53 µM
  relative viability: 0.828
[1]; first compound 8 µM
  relative viability: 1.05
[2]; first compound 0.08 µM
  relative viability: 0.787
[2]; first compound 0.253 µM
  relative viability: 0.936
[2]; first compound 0.8 µM
  relative viability: 0.943
[2]; first compound 2.53 µM
  relative viability: 0.919
[2]; first compound 8 µM
  relative viability: 0.699
[3]; first compound 0.08 µM
  relative viability: 0.633
[3]; first compound 0.253 µM
  relative viability: 0.718
[3]; first compound 0.8 µM
  relative viability: 0.547
[3]; first compound 2.53 µM
  relative viability: 0.666
[3]; first compound 8 µM
  relative viability: 0.767
[4]; first compound 0.08 µM
  relative viability: 0.547
[4]; first compound 0.253 µM
  relative viability: 0.6
[4]; first compound 0.8 µM
  relative viability: 0.625
[4]; first compound 2.53 µM
  relative viability: 0.402
[4]; first compound 8 µM
  relative viability: 0.51
[5]; first compound 0.08 µM
  relative viability: 0.685
[5]; first compound 0.253 µM
  relative viability: 0.975
[5]; first compound 0.8 µM
  relative viability: 0.918
[5]; first compound 2.53 µM
  relative viability: 0.758
[5]; first compound 8 µM
  relative viability: 0.74
[6]; first compound 0.08 µM
  relative viability: 0.425
[6]; first compound 0.253 µM
  relative viability: 0.366
[6]; first compound 0.8 µM
  relative viability: 0.436
[6]; first compound 2.53 µM
  relative viability: 0.338
[6]; first compound 8 µM
  relative viability: 0.386
[7]; first compound 0.08 µM
  relative viability: 0.604
[7]; first compound 0.253 µM
  relative viability: 0.651
[7]; first compound 0.8 µM
  relative viability: 0.531
[7]; first compound 2.53 µM
  relative viability: 0.492
[7]; first compound 8 µM
  relative viability: 0.653
[8]; first compound 0.08 µM
  relative viability: 0.454
[8]; first compound 0.253 µM
  relative viability: 0.619
[8]; first compound 0.8 µM
  relative viability: 0.436
[8]; first compound 2.53 µM
  relative viability: 0.408
[8]; first compound 8 µM
  relative viability: 0.55
[9]; first compound 0.08 µM
  relative viability: 0.589
[9]; first compound 0.253 µM
  relative viability: 0.558
[9]; first compound 0.8 µM
  relative viability: 0.523
[9]; first compound 2.53 µM
  relative viability: 0.519
[9]; first compound 8 µM
  relative viability: 0.559
[10]; first compound 0.08 µM
  relative viability: 0.379
[10]; first compound 0.253 µM
  relative viability: 0.441
[10]; first compound 0.8 µM
  relative viability: 0.335
[10]; first compound 2.53 µM
  relative viability: 0.379
[10]; first compound 8 µM
  relative viability: 0.386
[11]; first compound 0.08 µM
  relative viability: 0.537
[11]; first compound 0.253 µM
  relative viability: 0.591
[11]; first compound 0.8 µM
  relative viability: 0.535
[11]; first compound 2.53 µM
  relative viability: 0.433
[11]; first compound 8 µM
  relative viability: 0.752
[12]; first compound 0.08 µM
  relative viability: 0.183
[12]; first compound 0.253 µM
  relative viability: 0.194
[12]; first compound 0.8 µM
  relative viability: 0.192
[12]; first compound 2.53 µM
  relative viability: 0.179
[12]; first compound 8 µM
  relative viability: 0.209
[13]; first compound 0.08 µM
  relative viability: 0.395
[13]; first compound 0.253 µM
  relative viability: 0.553
[13]; first compound 0.8 µM
  relative viability: 0.284
[13]; first compound 2.53 µM
  relative viability: 0.329
[13]; first compound 8 µM
  relative viability: 0.389
[14]; first compound 0.08 µM
  relative viability: 0.759
[14]; first compound 0.253 µM
  relative viability: 0.61
[14]; first compound 0.8 µM
  relative viability: 0.587
[14]; first compound 2.53 µM
  relative viability: 0.754
[14]; first compound 8 µM
  relative viability: 0.631
[15]; first compound 0.08 µM
  relative viability: 0.79
[15]; first compound 0.253 µM
  relative viability: 0.787
[15]; first compound 0.8 µM
  relative viability: 0.784
[15]; first compound 2.53 µM
  relative viability: 0.828
[15]; first compound 8 µM
  relative viability: 0.929
[16]; first compound 0.08 µM
  relative viability: 0.494
[16]; first compound 0.253 µM
  relative viability: 0.571
[16]; first compound 0.8 µM
  relative viability: 0.611
[16]; first compound 2.53 µM
  relative viability: 0.477
[16]; first compound 8 µM
  relative viability: 0.564
[17]; first compound 0.08 µM
  relative viability: 0.401
[17]; first compound 0.253 µM
  relative viability: 0.457
[17]; first compound 0.8 µM
  relative viability: 0.392
[17]; first compound 2.53 µM
  relative viability: 0.312
[17]; first compound 8 µM
  relative viability: 0.387
[18]; first compound 0.08 µM
  relative viability: 0.648
[18]; first compound 0.253 µM
  relative viability: 0.584
[18]; first compound 0.8 µM
  relative viability: 0.532
[18]; first compound 2.53 µM
  relative viability: 0.405
[18]; first compound 8 µM
  relative viability: 0.461
[19]; first compound 0.08 µM
  relative viability: 0.434
[19]; first compound 0.253 µM
  relative viability: 0.44
[19]; first compound 0.8 µM
  relative viability: 0.416
[19]; first compound 2.53 µM
  relative viability: 0.324
[19]; first compound 8 µM
  relative viability: 0.381
[20]; first compound 0.08 µM
  relative viability: 0.21
[20]; first compound 0.253 µM
  relative viability: 0.223
[20]; first compound 0.8 µM
  relative viability: 0.207
[20]; first compound 2.53 µM
  relative viability: 0.176
[20]; first compound 8 µM
  relative viability: 0.24
[21]; first compound 0.08 µM
  relative viability: 0.499
[21]; first compound 0.253 µM
  relative viability: 0.568
[21]; first compound 0.8 µM
  relative viability: 0.585
[21]; first compound 2.53 µM
  relative viability: 0.454
[21]; first compound 8 µM
  relative viability: 0.674
[22]; first compound 0.08 µM
  relative viability: 0.339
[22]; first compound 0.253 µM
  relative viability: 0.415
[22]; first compound 0.8 µM
  relative viability: 0.298
[22]; first compound 2.53 µM
  relative viability: 0.34
[22]; first compound 8 µM
  relative viability: 0.27
